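Cells were grown in 96-well plates and exposed to each compound for 48 hours at five concentrations; endpoints were interpolated linearly between bracketing concentrations, or set to the highest concentration if not reached. At the GI50, growth is halved. TGI: concentration producing complete growth inhibition.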
Assays:
Experiment in all cases: NCI anticancer screen, dose series, 48 h
[1] = system: 786-0 renal
[2] = system: A498 renal
[3] = system: A549 NSCLC
[4] = system: ACHN renal
[5] = system: BT-549 breast
[6] = system: CAKI-1 renal
[7] = system: CCRF-CEM leukemia
[8] = system: COLO 205 colon
[9] = system: DU-145 prostate
[10] = system: EKVX NSCLC
[11] = system: HCC-2998 colon
[12] = system: HCT-116 colon
[13] = system: HCT-15 colon
[14] = system: HL-60(TB) leukemia
[15] = system: HOP-62 NSCLC
[16] = system: HOP-92 NSCLC
[17] = system: HS 578T breast
[18] = system: HT29 colon
[19] = system: IGROV1 ovarian
[20] = system: K-562 leukemia
[21] = system: KM12 colon
[22] = system: LOX IMVI melanoma
[23] = system: M14 melanoma
[24] = system: MALME-3M melanoma
[25] = system: MCF7 breast
[26] = system: MDA-MB-231 breast
[27] = system: MDA-MB-435
[28] = system: MOLT-4 leukemia
[29] = system: NCI-H226 lung
[30] = system: NCI-H23 lung
[31] = system: NCI-H460 lung
[32] = system: NCI-H522 lung
[33] = system: NCI/ADR-RES ovarian
[34] = system: OVCAR-3 ovarian
[35] = system: OVCAR-4 ovarian
[36] = system: OVCAR-5 ovarian
[37] = system: OVCAR-8 ovarian
[38] = system: PC-3 prostate
[39] = system: RXF 393 renal
[40] = system: SF-268 CNS
[41] = system: SF-295 CNS
[42] = system: SF-539 CNS
[43] = system: SK-MEL-2 melanoma
[44] = system: SK-MEL-28 melanoma
[45] = system: SK-MEL-5 melanoma
[46] = system: SK-OV-3 ovarian
[47] = system: SN12C renal
[48] = system: SNB-19 CNS
[49] = system: SNB-75 CNS
[50] = system: SR leukemia
[51] = system: SW-620 colon
[52] = system: T-47D breast
[53] = system: TK-10 renal
[54] = system: U251 CNS
[55] = system: UACC-257 melanoma
[56] = system: UACC-62 melanoma
[57] = system: UO-31 renal

Work on `CCN1CCN(CCNc2nccc(-c3c(-c4ccc(F)c(O)c4)nc4occn34)n2)S1(=O)=O` yielded a GI50 [1] of 9.44 µM, a TGI [1] of over 100 µM and a GI50 [2] of 5.15 µM. The TGI [2] was over 100 µM, the GI50 [3] was 4.58 µM and the TGI [3] was over 100 µM. The GI50 [4] was 3.44 µM, the TGI [4] was over 100 µM and the GI50 [5] was 2.97 µM. The TGI [5] was over 100 µM, the GI50 [6] was 4.3 µM and the TGI [6] was over 100 µM. The GI50 [7] was 2.2 µM, the TGI [7] was over 100 µM and the GI50 [8] was 4.6 µM. It also gave a TGI [8] of over 100 µM, a GI50 [9] of 3.75 µM and a TGI [9] of over 100 µM. The GI50 [10] was 6.81 µM, the TGI [10] was over 100 µM and the GI50 [11] was 6.19 µM. The TGI [11] was over 100 µM, the GI50 [12] was 3.76 µM and the TGI [12] was over 100 µM. The GI50 [13] was 3.93 µM, the TGI [13] was over 100 µM and the GI50 [14] was 4.16 µM. The TGI [14] was over 100 µM, the GI50 [15] was 5.97 µM and the TGI [15] was over 100 µM. For the same compound, the GI50 [16] was 52.1 µM, the TGI [16] was over 100 µM and the GI50 [17] was 6.75 µM. For the same compound, the TGI [17] was over 100 µM, the GI50 [18] was 4.2 µM and the TGI [18] was over 100 µM. For the same compound, the GI50 [19] was 4.06 µM, the TGI [19] was over 100 µM and the GI50 [20] was 3.67 µM. It also gave a TGI [20] of over 100 µM, a GI50 [21] of 3.72 µM and a TGI [21] of over 100 µM. The GI50 [22] was 3.76 µM, the TGI [22] was over 100 µM and the GI50 [23] was 4.28 µM. The TGI [23] was over 100 µM, the GI50 [24] was 3.8 µM and the TGI [24] was over 100 µM. It also gave a GI50 [25] of 3.82 µM, a TGI [25] of over 100 µM and a GI50 [26] of 32.3 µM. For the same compound, the TGI [26] was over 100 µM, the GI50 [27] was 3.03 µM and the TGI [27] was over 100 µM. For the same compound, the GI50 [28] was 2.56 µM, the TGI [28] was over 100 µM and the GI50 [29] was 3.8 µM. For the same compound, the TGI [29] was over 100 µM, the GI50 [30] was 4.12 µM and the TGI [30] was over 100 µM. The GI50 [31] was 4.92 µM, the TGI [31] was over 100 µM and the GI50 [32] was 2.93 µM. The TGI [32] was over 100 µM, the GI50 [33] was 3.01 µM and the TGI [33] was over 100 µM. The GI50 [34] was 4.44 µM, the TGI [34] was over 100 µM and the GI50 [35] was 4.59 µM. It also gave a TGI [35] of over 100 µM, a GI50 [36] of over 100 µM and a TGI [36] of over 100 µM. It also gave a GI50 [37] of 3.63 µM, a TGI [37] of over 100 µM and a GI50 [38] of 2.12 µM. The TGI [38] was over 100 µM, the GI50 [39] was 2.51 µM and the TGI [39] was over 100 µM. The GI50 [40] was 4.84 µM, the TGI [40] was over 100 µM and the GI50 [41] was 5.27 µM. The TGI [41] was over 100 µM, the GI50 [42] was over 100 µM and the TGI [42] was over 100 µM. The GI50 [43] was 3.98 µM, the TGI [43] was over 100 µM and the GI50 [44] was 5.68 µM. For the same compound, the TGI [44] was over 100 µM, the GI50 [45] was 2.23 µM and the TGI [45] was 5.89 µM. The GI50 [46] was 12.9 µM, the TGI [46] was over 100 µM and the GI50 [47] was 4.41 µM. The TGI [47] was over 100 µM, the GI50 [48] was over 100 µM and the TGI [48] was over 100 µM. It also gave a GI50 [49] of 3.65 µM, a TGI [49] of over 100 µM and a GI50 [50] of 7.46 µM. It also gave a TGI [50] of over 100 µM, a GI50 [51] of 8.42 µM and a TGI [51] of over 100 µM. For the same compound, the GI50 [52] was 2.13 µM, the TGI [52] was 24.6 µM and the GI50 [53] was 35.6 µM. The TGI [53] was over 100 µM, the GI50 [54] was 13.3 µM and the TGI [54] was over 100 µM. For the same compound, the GI50 [55] was 5.15 µM, the TGI [55] was over 100 µM and the GI50 [56] was 1.5 µM. It also gave a TGI [56] of 6.56 µM, a GI50 [57] of 2.66 µM and a TGI [57] of over 100 µM.

Source: PubChem BioAssay (NCI)
